Laboratory results as given in US20090239887A1, “Method of resolution and antiviral activity of 1,3-oxathiolane nucleoside enantiomers” (Emory University, priority 1990, published 2009).
Read-outs that look alike come from different tables or passages of the source.

Columns and labels:
[1] = test system: AZT-resistant, HIV isolates; conditions: isolates from patients treated with AZT for longer than 36 weeks; cited from earlier work
HIV-1 (strain LAV) = assay: microbe, parasite or virus in culture; format: cell-based
Text: It is often desirable to screen a number of racemic mixtures of nucleosides as a preliminary step to determine which warrant further resolution into enantiomerically enriched components and evaluation of antiviral activity. The ability of nucleosides to inhibit HIV can be measured by various experimental techniques. The technique used herein, and described in detail below, measures the inhibition of viral replication in phytohemagglutinin (PHA) stimulated human peripheral blood mononuclear (PBM) cells infected with HIV-1 (strain LAV). The amount of virus produced is determined by measuring the virus-coded reverse transcriptase enzyme. The amount of enzyme produced is proportional to the amount of virus produced.
A. Three-day-old phytohemagglutinin-stimulated PBM cells (10^6 cells/ml) from hepatitis B and HIV-1 seronegative healthy donors were infected with HIV-1 (strain LAV) at a concentration of about 100 times the 50% tissue culture infectious dose (TICD 50) per ml and cultured in the presence and absence of various concentrations of antiviral compounds.
B. Approximately one hour after infection, the medium, with the compound to be tested (2 times the final concentration in medium) or without compound, was added to the flasks (5 ml; final volume 10 ml). AZT was used as a positive control.
C. The cells were exposed to the virus (about 2×10^5 dpm/ml, as determined by reverse transcriptase assay) and then placed in a CO2 incubator. HIV-1 (strain LAV) was obtained from the Center for Disease Control, Atlanta, Ga. The methods used for culturing the PBM cells, harvesting the virus and determining the reverse transcriptase activity were those described by McDougal et al. (J. Immun. Meth. 76, 171-183, 1985) and Spira et al. (J. Clin. Meth. 25, 97-99, 1987), except that fungizone was not included in the medium (see Schinazi, et al., Antimicrob. Agents Chemother. 32, 1784-1787 (1988); Id., 34:1061-1067 (1990)).
D. On day 6, the cells and supernatant were transferred to a 15 ml tube and centrifuged at about 900 g for 10 minutes. Five ml of supernatant were removed and the virus was concentrated by centrifugation at 40,000 rpm for 30 minutes (Beckman 70.1 Ti rotor). The solubilized virus pellet was processed for determination of the levels of reverse transcriptase. Results are expressed in dpm/ml of sampled supernatant. Virus from smaller volumes of supernatant (1 ml) can also be concentrated by centrifugation prior to solubilization and determination of reverse transcriptase levels.

HIV = conditions: cited from earlier work
HIV RT = target: T1, HIV RT (Human immunodeficiency virus type 1 group M subtype B, UniProt P04585); assay: Affinity of triphosphate against HIV RT; format: biochemical; conditions: read-out: affinity (K^1) against HIV RT
T1 construct: (±)-FTC triphosphate against HIV RT is 0.2 μM

[2] = Egress of radiolabeled (±)-FTC from human PBM cells; format: in vitro ADME; conditions: human PBM cells, after 24 hour pulse with 10 μM; read-out: intracellular half-life (converted)
Method: (§1) Studies are conducted in duplicate. Uninfected cells (2×10^6 ml) are suspended in the appropriate medium supplemented with serum (10 ml per timepoint) and incubated at 37° C. in a 5% CO2 incubator. Radiolabeled FTC concentration is 10 μM. After pulsing the cells with the labeled compound for the desired time, the cells are thoroughly washed and then replenished with fresh medium without the antiviral drugs (0 hr). At 0, 2, 4, 6, 12, 24, and 48 hours (second incubation time), the cells are removed, and immediately extracted with 60% cold methanol/water. The extract is obtained by centrifugation and removal of the cell pellet. The extracts are lyophilized and then stored at −70° C. Prior to analysis, the material is resuspended in 250 μl of HPLC buffer and immediately analyzed.
(§2) Either a Micromeritics or Hewlett-Packard model 1090 PHLC system is used with an anion exchange Partisil 10 SAX column (Whatman, Inc.), at a flow rate of 1 ml/min, 1 kpsi pressure, using uv detection at 262 nm.
(§3) The mobile phase consists of:
(§4) b. 2 mM NaH2PO4/16 mM NaOAc (pH=6.6)
(§5) Separation method: isocratic for 5 min with A, followed by a 15 min linear gradient to 100% B, followed by a 20 min linear gradient to 100% C, followed by 10 min linear gradient to 100% D, followed by 30 min isocratic with 100% D.

human PBM cells = assay: as above; format: in vitro ADME; conditions: 48 hours after the removal of the extracellular drug
Method: as §1, §2, §3, §4, §5

[3] = Cytotoxicity in mitogen stimulated uninfected human PBM cells (trypan blue exclusion); format: cell-based
Text: The cells were counted after 6 days using a hemacytometer and the trypan blue exclusion method, as described by Schinazi et al., Antimicrobial Agents and Chemotherapy, 22(3), 499 (1982).

[4] = target: reverse transcriptase activity; conditions: read-out: EC50, concentration required to reduce the reverse transcriptase activity by 50%; cited from earlier work

For `Nc1ccn(C2CSC(CO)O2)c(=O)n1` (racemic) [BCH-189 (±), 2-hydroxymethyl-5-(cytosin-1-yl)-1,3-oxathiolane, reference compound], which “replication of AZT-resistant HIV isolates” value [1] is on record?
The value was “inhibit the replication”.

What about the DPM/ml (HIV-1 (strain LAV); 0.001 μM) of the same compound?
Its DPM/ml is 65,170 DPM/ml.

What about the DPM/ml (HIV-1 (strain LAV); 0.005 μM) of the same compound?
The DPM/ml was 62,595 DPM/ml.

What about the DPM/ml (HIV-1 (strain LAV); 0.01 μM) of the same compound?
Its DPM/ml is 70,875 DPM/ml.

What about the DPM/ml (HIV-1 (strain LAV); 0.05 μM) of the same compound?
The DPM/ml was 77,650 DPM/ml.

What about the DPM/ml (HIV-1 (strain LAV); 0.1 μM) of the same compound?
The DPM/ml was 33,165 DPM/ml.

What about the DPM/ml (HIV-1 (strain LAV); 0.5 μM) of the same compound?
Its DPM/ml is 10,765 DPM/ml.

And the DPM/ml (HIV-1 (strain LAV); 1 μM)?
The DPM/ml was 7,745 DPM/ml.

And the DPM/ml (HIV-1 (strain LAV); 5 μM)?
Its DPM/ml is 6,800 DPM/ml.

What about the DPM/ml (HIV-1 (strain LAV); 10 μM) of the same compound?
Its DPM/ml is 4,470 DPM/ml.

And the EC50 (HIV-1 (strain LAV); Human immunodeficiency virus 1, PBMC, human PBM cells infected with HIV-1, enantiomers isolated by chiral HPLC (Example 3), read-out: EC50)?
Its EC50 is 81 nM.

What about the inhibition at 0.001 µM (HIV-1 (strain LAV); Human immunodeficiency virus 1, PBMC, 0.001 μM, read-out: % Inhibition (Corrected)) of the same compound?
The inhibition at 0.001 µM was 36.1%.

What about the inhibition at 0.005 µM (HIV-1 (strain LAV); Human immunodeficiency virus 1, PBMC, 0.005 μM, read-out: % Inhibition (Corrected)) of the same compound?
Its inhibition at 0.005 µM is 38.9%.

And the inhibition at 0.01 µM (HIV-1 (strain LAV); Human immunodeficiency virus 1, PBMC, 0.01 μM, read-out: % Inhibition (Corrected))?
Its inhibition at 0.01 µM is 29.8%.

What about the inhibition at 0.05 µM (HIV-1 (strain LAV); Human immunodeficiency virus 1, PBMC, 0.05 μM, read-out: % Inhibition (Corrected)) of the same compound?
The inhibition at 0.05 µM was 22.3%.

What about the inhibition at 0.1 µM (HIV-1 (strain LAV); Human immunodeficiency virus 1, PBMC, 0.1 μM, read-out: % Inhibition (Corrected)) of the same compound?
The inhibition at 0.1 µM was 71.4%.

What about the inhibition at 0.5 µM (HIV-1 (strain LAV); Human immunodeficiency virus 1, PBMC, 0.5 μM, read-out: % Inhibition (Corrected)) of the same compound?
The inhibition at 0.5 µM was 96.2%.

What about the inhibition at 1 µM (HIV-1 (strain LAV); Human immunodeficiency virus 1, PBMC, 1 μM, read-out: % Inhibition (Corrected)) of the same compound?
Its inhibition at 1 µM is 99.5%.

What about the inhibition at 5 µM (HIV-1 (strain LAV); Human immunodeficiency virus 1, PBMC, 5 μM, read-out: % Inhibition (Corrected)) of the same compound?
Its inhibition at 5 µM is 101%.

And the inhibition at 10 µM (HIV-1 (strain LAV); Human immunodeficiency virus 1, PBMC, 10 μM, read-out: % Inhibition (Corrected))?
Its inhibition at 10 µM is 103%.

And the “activity against HIV compared with AZT” value (HIV)?
Its value is “approximately the same activity against HIV as AZT”.

Which Ki (HIV RT) does the source give for `Nc1nc(=O)n(C2CSC(COP(=O)(O)OP(=O)(O)OP(=O)(O)O)O2)cc1F` (racemic) [FTC-triphosphate] here?
Its Ki is 200 nM.

What about the half-life at 10 μM [2] of the same compound?
Its half-life at 10 μM is ~12 h.

And the intracellular concentration (human PBM cells)?
The intracellular concentration was 1 to 5 µM.

What does the source list for `Nc1nc(=O)n(C2CSC(CO)O2)cc1F` (single isomer, unassigned; (+)) [DLS-059 (+), (+)-2-hydroxymethyl-5-(5-fluorocytosin-1-yl)-1,3-oxathiolane]?
DPM/ml (HIV-1 (strain LAV); 0.001 μM, listed as FTC (+)): 94,340 DPM/ml; % Inhibition (Corrected) (HIV-1 (strain LAV); 0.001 μM, listed as FTC (+), 0.001 µM): 3.8%; DPM/ml (HIV-1 (strain LAV); 0.005 μM, listed as FTC (+)): 107,430 DPM/ml; % Inhibition (Corrected) (HIV-1 (strain LAV); 0.005 μM, listed as FTC (+), 0.005 µM): −10.6%; DPM/ml (HIV-1 (strain LAV); 0.01 μM, listed as FTC (+)): 99,465 DPM/ml; % Inhibition (Corrected) (HIV-1 (strain LAV); 0.01 μM, listed as FTC (+), 0.01 µM): −1.8%; DPM/ml (HIV-1 (strain LAV); 0.05 μM, listed as FTC (+)): 87,120 DPM/ml; % Inhibition (Corrected) (HIV-1 (strain LAV); 0.05 μM, listed as FTC (+), 0.05 µM): 11.8%; DPM/ml (HIV-1 (strain LAV); 0.1 μM, listed as FTC (+)): 86,340 DPM/ml; % Inhibition (Corrected) (HIV-1 (strain LAV); 0.1 μM, listed as FTC (+), 0.1 µM): 12.7%; DPM/ml (HIV-1 (strain LAV); 0.5 μM, listed as FTC (+)): 33,225 DPM/ml; % Inhibition (Corrected) (HIV-1 (strain LAV); 0.5 μM, listed as FTC (+), 0.5 µM): 71.4%; EC50 (HIV-1 (strain LAV); summary range, listed as (+)-enantiomer of FTC, read-out: EC50 against HIV): 280 to 840 nM

What does the source list for `Nc1nc(=O)n(C2CSC(CO)O2)cc1F` (single isomer, unassigned; (-)) [DLS-058 (−), (−)-2-hydroxymethyl-5-(5-fluorocytosin-1-yl)-1,3-oxathiolane]?
IC50 at 6 days [3]: > 100000 nM; % Inhibition (Corrected) (HIV-1 (strain LAV); 0.001 μM, listed as FTC (−)): 23.8%; DPM/ml (HIV-1 (strain LAV); 0.001 μM, listed as FTC (−)): 76,275 DPM/ml; % Inhibition (Corrected) (HIV-1 (strain LAV); 0.005 μM, listed as FTC (−)): 43.3%; DPM/ml (HIV-1 (strain LAV); 0.005 μM, listed as FTC (−)): 58,590 DPM/ml; % Inhibition (Corrected) (HIV-1 (strain LAV); 0.01 μM, listed as FTC (−)): 24.8%; DPM/ml (HIV-1 (strain LAV); 0.01 μM, listed as FTC (−)): 75,350 DPM/ml; % Inhibition (Corrected) (HIV-1 (strain LAV); 0.05 μM, listed as FTC (−)): 76.2%; DPM/ml (HIV-1 (strain LAV); 0.05 μM, listed as FTC (−)): 28,890 DPM/ml; % Inhibition (Corrected) (HIV-1 (strain LAV); 0.1 μM, listed as FTC (−)): 93.5%; DPM/ml (HIV-1 (strain LAV); 0.1 μM, listed as FTC (−)): 13,175 DPM/ml; % Inhibition (Corrected) (HIV-1 (strain LAV); 0.5 μM, listed as FTC (−)): 97.6%; DPM/ml (HIV-1 (strain LAV); 0.5 μM, listed as FTC (−)): 9,485 DPM/ml; EC50 (HIV-1 (strain LAV); summary range, read-out: EC50 against HIV): 7.7 to 20 nM; activity against HBV (HBV (hepatitis B virus)): significant activity

With `Nc1nc2c(ncn2[C@H]2C=C[C@@H](CO)O2)c(=O)[nH]1` [(+)-enantiomer of carbovir, 2′,3′-didehydro-2′,3′-dideoxyguanosine] as the compound, how does the EC50 [4] read?
The EC50 was > 60000 nM.

With `Nc1nc2c(ncn2[C@H]2C=C[C@@H](CO)O2)c(=O)[nH]1` [(−)-enantiomer of carbovir, 2′,3′-didehydro-2′,3′-dideoxyguanosine] as the compound, how does the EC50 [4] read?
Its EC50 is 800 nM.
